In patent US8815882B2, “Pyrazole aminopyrimidine derivatives as LRRK2 modulators” (Genentech, Inc., priority 2010, dated 2014):

What follows are compounds tested against T1, LRRK2 (Homo sapiens, UniProt Q5S007, G2019S) (assay: In Vitro LRRK2 Assay (LabChip 3000, fluorescently-labeled peptide substrate, ATP)). Details: Table 9; LRRK2 Ki (micromolar); read-out: LRRK2 Ki (KI).
T1 construct: purchased Invitrogen PV4882 (lot 567054A)
T1 sequence (Q5S007 whole entry G2019S): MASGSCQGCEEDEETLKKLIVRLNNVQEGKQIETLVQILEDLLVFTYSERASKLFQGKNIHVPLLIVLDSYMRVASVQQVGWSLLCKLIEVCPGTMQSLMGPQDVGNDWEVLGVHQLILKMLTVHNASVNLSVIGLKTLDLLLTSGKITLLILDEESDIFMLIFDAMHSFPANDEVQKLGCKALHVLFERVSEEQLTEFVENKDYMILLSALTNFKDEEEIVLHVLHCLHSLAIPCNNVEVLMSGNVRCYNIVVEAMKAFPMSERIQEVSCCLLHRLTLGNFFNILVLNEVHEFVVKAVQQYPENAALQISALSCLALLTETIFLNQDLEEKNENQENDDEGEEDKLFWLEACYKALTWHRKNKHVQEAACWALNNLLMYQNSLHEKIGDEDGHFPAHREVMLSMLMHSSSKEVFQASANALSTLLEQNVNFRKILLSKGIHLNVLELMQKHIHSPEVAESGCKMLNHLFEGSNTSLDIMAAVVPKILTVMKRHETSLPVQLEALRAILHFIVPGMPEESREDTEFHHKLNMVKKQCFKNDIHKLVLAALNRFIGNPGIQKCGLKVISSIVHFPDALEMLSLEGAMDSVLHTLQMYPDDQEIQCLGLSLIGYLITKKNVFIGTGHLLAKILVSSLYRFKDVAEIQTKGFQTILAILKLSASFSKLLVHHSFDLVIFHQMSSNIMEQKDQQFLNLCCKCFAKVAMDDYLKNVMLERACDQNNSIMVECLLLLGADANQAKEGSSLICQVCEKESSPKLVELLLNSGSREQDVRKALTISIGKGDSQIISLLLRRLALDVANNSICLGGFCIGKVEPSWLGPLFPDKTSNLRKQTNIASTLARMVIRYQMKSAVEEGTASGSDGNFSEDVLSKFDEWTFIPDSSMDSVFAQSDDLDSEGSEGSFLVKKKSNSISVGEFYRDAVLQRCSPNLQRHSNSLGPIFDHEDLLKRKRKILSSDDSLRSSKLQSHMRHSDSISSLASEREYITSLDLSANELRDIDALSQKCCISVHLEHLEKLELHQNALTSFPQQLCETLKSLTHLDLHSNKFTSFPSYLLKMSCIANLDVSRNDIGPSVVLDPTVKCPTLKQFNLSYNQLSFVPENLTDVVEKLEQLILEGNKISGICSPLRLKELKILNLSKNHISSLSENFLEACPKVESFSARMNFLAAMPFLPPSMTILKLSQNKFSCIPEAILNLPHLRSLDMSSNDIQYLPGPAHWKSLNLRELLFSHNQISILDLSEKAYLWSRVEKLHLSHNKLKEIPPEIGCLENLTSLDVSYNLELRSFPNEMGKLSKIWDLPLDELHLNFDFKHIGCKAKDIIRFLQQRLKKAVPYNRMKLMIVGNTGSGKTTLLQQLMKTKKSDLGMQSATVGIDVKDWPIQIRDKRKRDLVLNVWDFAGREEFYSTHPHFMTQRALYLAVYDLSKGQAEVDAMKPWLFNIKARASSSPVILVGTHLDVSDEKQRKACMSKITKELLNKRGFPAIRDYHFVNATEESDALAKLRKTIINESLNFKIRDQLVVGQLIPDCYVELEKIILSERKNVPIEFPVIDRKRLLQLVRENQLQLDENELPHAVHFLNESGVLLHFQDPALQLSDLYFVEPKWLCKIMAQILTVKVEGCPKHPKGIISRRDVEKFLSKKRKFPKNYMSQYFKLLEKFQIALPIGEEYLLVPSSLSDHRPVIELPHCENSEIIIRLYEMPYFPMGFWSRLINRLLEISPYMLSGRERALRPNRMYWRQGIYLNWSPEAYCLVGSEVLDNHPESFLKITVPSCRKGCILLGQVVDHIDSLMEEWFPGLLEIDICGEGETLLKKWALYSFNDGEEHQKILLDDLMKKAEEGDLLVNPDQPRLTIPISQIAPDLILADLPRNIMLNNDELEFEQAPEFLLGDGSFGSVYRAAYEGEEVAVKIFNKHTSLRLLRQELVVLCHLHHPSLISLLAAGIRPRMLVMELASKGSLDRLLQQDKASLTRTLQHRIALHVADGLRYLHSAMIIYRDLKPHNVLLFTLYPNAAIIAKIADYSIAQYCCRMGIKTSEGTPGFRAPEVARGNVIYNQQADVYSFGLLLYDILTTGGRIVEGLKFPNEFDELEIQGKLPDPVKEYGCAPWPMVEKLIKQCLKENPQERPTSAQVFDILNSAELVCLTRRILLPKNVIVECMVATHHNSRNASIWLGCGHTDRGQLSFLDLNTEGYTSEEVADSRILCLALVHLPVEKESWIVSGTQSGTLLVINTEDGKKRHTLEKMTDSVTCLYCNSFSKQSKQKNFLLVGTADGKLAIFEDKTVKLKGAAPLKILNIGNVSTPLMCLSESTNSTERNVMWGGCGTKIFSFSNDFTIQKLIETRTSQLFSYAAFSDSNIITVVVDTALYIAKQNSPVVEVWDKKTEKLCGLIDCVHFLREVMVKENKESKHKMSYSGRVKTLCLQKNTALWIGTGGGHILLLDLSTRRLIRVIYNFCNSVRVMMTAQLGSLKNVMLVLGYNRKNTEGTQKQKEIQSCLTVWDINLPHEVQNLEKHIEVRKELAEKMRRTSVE
Format: biochemical
Method in brief: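 Read-out was LabChip capillary electrophoresis, resolving phospho- from non-phospho-peptide by fluorescence intensity. The kinase reaction combined enzyme, ATP, test compound and labeled peptide (4 μM working dilution) for 2 h in darkness before stop solution. Values were reported as Ki, from a tight-binding model with Et, S and Km, or as IC50 or percent inhibition.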
`CCNc1nc(Nc2cnn(CC)c2C)ncc1C#N` [Example 363, 2-(1-ethyl-5-methyl-1H-pyrazol-4-ylamino)-4-(ethylamino) pyrimidine-5-carbonitrile] showed a Ki of 6 nM.

Same assay, conditions: Table 10; LRRK2 Ki (micromolar); read-out: LRRK2 Ki (KI)
With `CCNC(=O)C1(n2cc(Nc3ncc(C(F)(F)F)c(NC)n3)c(C)n2)CCC1` [Example 428] the Ki was 24 nM.
With `COc1nc(Nc2cn(C(C)(C)C#N)nc2C2CC2)ncc1Cl` [Example 438, 2-[4-(5-Chloro-4-methoxy-pyrimidin-2-ylamino)-3-cyclopropyl-pyrazol-1-yl]-2-methyl-propionitrile] the Ki was 5.8 nM.
For `CNc1nc(Nc2cnn(C(C)(C)C(=O)OC)c2C)ncc1C(F)(F)F` [Example 409, methyl 2-methyl-2-(5-methyl-4-(4-(methylamino)-5-(trifluoromethyl)pyrimidin-2-ylamino)-1H-pyrazol-1-yl)propanoate], the Ki was 7.6 nM.
`COC(=O)C(C)(C)n1cc(Nc2ncc(Cl)c(OC)n2)c(C)n1` [Example 435, 2-[4-(5-Chloro-4-methoxy-pyrimidin-2-ylamino)-3-methyl-pyrazol-1-yl]-2-methyl-propionic acid methyl ester] showed a Ki of 35.5 nM.
Compound `CNc1nc(Nc2cnn([C@H](C)C(=O)N(C)C)c2C)ncc1C(F)(F)F` [Example 412, (R)-N,N-dimethyl-2-(5-methyl-4-(4-(methylamino)-5-(trifluoromethyl)pyrimidin-2-ylamino)-1H-pyrazol-1-yl)propanamide] has a Ki of 28.4 nM.

Same assay, conditions: read-out: LRRK2 Ki (KI), Table 7
In the case of `CNc1nc(Nc2cn(C(C)C)nc2C)ncc1Cl` [Example 31, 5-Chloro-N^2-(1-isopropyl-3-methyl-1H-pyrazol-4-yl)-N^4-methylpyrimidine-2,4-diamine], the Ki is reported as 12 nM.
`CCn1cc(Nc2ncc(Cl)c(OC)n2)c(C)n1` [Example 26, 5-Chloro-N-(1-ethyl-3-methyl-1H-pyrazol-4-yl)-4-methoxy-pyrimidin-2-amine] showed a Ki of 13 nM.
Work on `CNc1nc(Nc2cn(C3CCOCC3)nc2C)ncc1C(F)(F)F` [Example 32, N^4-methyl-N^2-(3-methyl-1-(tetrahydro-2H-pyran-4-yl)-1H-pyrazol-4-yl)-5-(trifluoromethyl) pyrimidine-2,4-diamine] yielded a Ki of 24 nM.
`COc1nc(Nc2cn(S(=O)(=O)C3CC3)nc2C)ncc1Cl` [Example 71, 5-chloro-N-(1-(cyclopropyl-sulfonyl)-3-methyl-1H-pyrazol-4-yl)-4-methoxy-pyrimidin-2-amine] showed a Ki of 20 nM.
`COc1nc(Nc2cn(-c3ccc(S(C)(=O)=O)cc3)nc2C)ncc1Cl` [Example 75, (5-Chloro-4-methoxy-pyrimidin-2-yl)-[1-(4-methanesulfonyl-phenyl)-3-methyl-1H-pyrazol-4-yl]-amine] showed a Ki of 2.2 nM.
For `COc1nc(Nc2cn(C)nc2C)ncc1Cl` [Example 15, 5-Chloro-N-(1,3-dimethyl-1H-pyrazol-4-yl)-4-methoxy-pyrimidin-2-amine], the Ki was 14.4 nM.

Same assay, conditions: read-out: LRRK2 Ki (KI), Table 8
In the case of `CCNc1nc(Nc2cn(-c3ccc(S(C)(=O)=O)cc3)nc2C)ncc1C(F)(F)F` [Example 266, N4-Ethyl-N2-[1-(4-methanesulfonyl-phenyl)-3-methyl-1H-pyrazol-4-yl]-5-trifluoromethyl-pyrimidine-2,4-diamine], the Ki is reported as 2.1 nM.
Work on `CCNc1nc(Nc2cn(C3CCN(C)CC3)nc2C)ncc1C(F)(F)F` [Example 208, N4-ethyl-N2-(3-methyl-1-(1-methylpiperidin-4-yl)-1H-pyrazol-4-yl)-5-(trifluoromethyl) pyrimidine-2,4-diamine] yielded a Ki of 10.2 nM.
Work on `CCNc1nc(Nc2cn([C@H]3CCCN(C)C3)nc2C)ncc1C(F)(F)F` [Example 312, N4-Ethyl-N2-[3-methyl-1-((S)-1-methyl-piperidin-3-yl)-1H-pyrazol-4-yl]-5-trifluoromethyl-pyrimidine-2,4-diamine] yielded a Ki of 15.6 nM.
`CCNc1nc(Nc2cn(C3CCN(C(C)=O)CC3)nc2C)ncc1C(F)(F)F` [Example 134, 1-(4-(4-(4-(ethylamino)-5-(trifluoromethyl)pyrimidin-2-ylamino)-3-methyl-1H-pyrazol-1-yl)piperidin-1-yl)ethanone] showed a Ki of 2.2 nM.
In the case of `CNc1nc(Nc2cn(S(=O)(=O)C(C)C)nc2C)ncc1C(F)(F)F` [Example 217, N2-(1-(isopropylsulfonyl)-3-methyl-1H-pyrazol-4-yl)-N4-methyl-5-(trifluoromethyl) pyrimidine-2,4-diamine], the Ki is reported as 9.9 nM.
`CCC(C)S(=O)(=O)n1ncc(Nc2ncc(C(F)(F)F)c(NC)n2)c1C` (centres unmarked) [Example 219, N2-(1-(sec-butylsulfonyl)-5-methyl-1H-pyrazol-4-yl)-N4-methyl-5-(trifluoromethyl) pyrimidine-2,4-diamine] gave a Ki of 6.7 nM.
With `CNc1nc(Nc2cnn(C)c2CF)ncc1C(F)(F)F` [Example 330, N2-(5-Fluoromethyl-1-methyl-1H-pyrazol-4-yl)-N4-methyl-5-trifluoromethyl-pyrimidine-2,4-diamine] the Ki was 24.5 nM.
With `CNc1nc(Nc2cnn(Cc3ncccn3)c2C)ncc1C(F)(F)F` [Example 315, N4-Methyl-N2-(5-methyl-1-pyrimidin-2-ylmethyl-1H-pyrazol-4-yl)-5-trifluoromethyl-pyrimidine-2,4-diamine] the Ki was 1.4 nM.
In the case of `CNc1nc(Nc2cn(C3CCN(CC(F)(F)F)CC3)nc2C)ncc1C(F)(F)F` [Example 92, N4-methyl-N2-(3-methyl-1-(1-(2,2,2-trifluoroethyl)piperidin-4-yl)-1H-pyrazol-4-yl)-5-(trifluoromethyl) pyrimidine-2,4-diamine], the Ki is reported as 46 nM.
In the case of `CNc1nc(Nc2cnn(-c3ccc(Cl)cc3)c2C)ncc1Br` [Example 122, 5-bromo-N2-(1-(4-chlorophenyl)-5-methyl-1H-pyrazol-4-yl)-N4-methylpyrimidine-2,4-diamine], the Ki is reported as 14 nM.
With `CNc1nc(Nc2cn(C3CCCC3O)nc2C)ncc1C(F)(F)F` (centres unmarked) [Example 335, 2-[3-Methyl-4-(4-methylamino-5-trifluoromethyl-pyrimidin-2-ylamino)-pyrazol-1-yl]-cyclopentanol] the Ki was 3.3 nM.
Compound `CNc1nc(Nc2cn(Cc3cnccn3)nc2C)ncc1C(F)(F)F` [Example 317, N4-Methyl-N2-(3-methyl-1-pyrazin-2-ylmethyl-1H-pyrazol-4-yl)-5-trifluoromethyl-pyrimidine-2,4-diamine] has a Ki of 1.2 nM.
Compound `CNc1nc(Nc2cnn(CC(O)C(C)C)c2C)ncc1C(F)(F)F` (centres unmarked) [Example 320, 3-Methyl-1-[5-methyl-4-(4-methylamino-5-trifluoromethyl-pyrimidin-2-ylamino)-pyrazol-1-yl]-butan-2-ol] has a Ki of 3 nM.
With `CNc1nc(Nc2cnn([C@H](C)COC)c2C)ncc1C(F)(F)F` [Example 205, (R)-N2-(1-(1-methoxypropan-2-yl)-5-methyl-1H-pyrazol-4-yl)-N4-methyl-5-(trifluoromethyl) pyrimidine-2,4-diamine] the Ki was 19 nM.
`CCNc1nc(Nc2cn(C(C)(C)c3nnc[nH]3)nc2C)ncc1C(F)(F)F` [Example 327, N4-Ethyl-N2-{3-methyl-1-[1-methyl-1-(4H-[1,2,4]triazol-3-yl)-ethyl]-1H-pyrazol-4-yl}-5-trifluoromethyl-pyrimidine-2,4-diamine] was tested, and the Ki was 0.5 nM.
`CNc1nc(Nc2cn(C3CCN(CCF)CC3)nc2C)ncc1C(F)(F)F` [Example 285, N2-{1-[1-(2-Fluoro-ethyl)-piperidin-4-yl]-3-methyl-1H-pyrazol-4-yl}-N4-methyl-5-trifluoromethyl-pyrimidine-2,4-diamine] gave a Ki of 28.3 nM.
For `CCCn1ncc(Nc2ncc(Br)c(NC)n2)c1C` [Example 259, 5-Bromo-N4-methyl-N2-(5-methyl-1-propyl-1H-pyrazol-4-yl)-pyrimidine-2,4-diamine], the Ki was 5.7 nM.
